In ChEMBL document CHEMBL4507291 (2021):

Assays:
[1] = target: Mitogen-activated protein kinase 7 (Homo sapiens) (UniProt Q13164)
[2] = target: Serine/threonine-protein kinase 36 (Homo sapiens) (UniProt Q9NRP7)
[3] = target: MAP kinase-activated protein kinase 2 (Homo sapiens) (UniProt P49137)
[4] = target: Dual specificity protein kinase CLK2 (Homo sapiens) (UniProt P49760)
[5] = tested on: Phosphatidylinositol 4,5-bisphosphate 3-kinase catalytic subunit alpha isoform (Homo sapiens), P42336 [E542K]
[6] = target: T1, 5-hydroxytryptamine receptor 3A (Homo sapiens) (UniProt P46098); settings: Compound concentration 10.0 uM
T1 sequence (whole entry): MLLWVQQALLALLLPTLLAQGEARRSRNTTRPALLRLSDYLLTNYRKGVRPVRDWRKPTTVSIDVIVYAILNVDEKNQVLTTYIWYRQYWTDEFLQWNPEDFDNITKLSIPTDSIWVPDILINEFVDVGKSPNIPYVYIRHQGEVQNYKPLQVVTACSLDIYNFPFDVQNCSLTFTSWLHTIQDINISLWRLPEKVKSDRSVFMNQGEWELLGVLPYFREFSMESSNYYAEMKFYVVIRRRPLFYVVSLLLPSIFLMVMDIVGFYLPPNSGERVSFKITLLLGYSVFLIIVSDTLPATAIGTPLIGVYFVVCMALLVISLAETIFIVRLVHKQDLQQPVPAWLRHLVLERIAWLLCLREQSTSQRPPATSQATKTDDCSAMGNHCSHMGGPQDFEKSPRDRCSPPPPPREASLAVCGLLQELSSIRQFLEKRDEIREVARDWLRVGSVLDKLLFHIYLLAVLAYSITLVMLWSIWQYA

[7] = target: Ribosomal protein S6 kinase beta-1 (Homo sapiens) (UniProt P23443)
Chain of Ribosomal protein S6 kinase beta-1 (Homo sapiens) (P23443 whole entry, looked up): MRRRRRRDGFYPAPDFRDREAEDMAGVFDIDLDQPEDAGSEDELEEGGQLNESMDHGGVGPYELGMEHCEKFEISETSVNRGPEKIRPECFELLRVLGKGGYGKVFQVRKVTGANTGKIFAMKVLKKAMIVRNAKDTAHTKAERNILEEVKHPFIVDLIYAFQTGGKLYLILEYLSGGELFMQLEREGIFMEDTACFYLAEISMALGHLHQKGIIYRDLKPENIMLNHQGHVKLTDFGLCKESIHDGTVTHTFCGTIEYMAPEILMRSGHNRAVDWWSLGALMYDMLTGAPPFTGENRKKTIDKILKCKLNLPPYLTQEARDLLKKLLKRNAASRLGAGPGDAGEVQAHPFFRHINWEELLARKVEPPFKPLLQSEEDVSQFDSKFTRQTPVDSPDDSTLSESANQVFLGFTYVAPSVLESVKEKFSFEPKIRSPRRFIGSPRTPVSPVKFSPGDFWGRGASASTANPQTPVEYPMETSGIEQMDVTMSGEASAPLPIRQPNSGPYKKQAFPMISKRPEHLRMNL

[8] = tested on: Tyrosine-protein kinase ABL1 (Homo sapiens), P00519 [Q252H]
[9] = target: T2, 5-hydroxytryptamine receptor 1A (Homo sapiens) (UniProt P08908); settings: Compound concentration 10.0 uM
T2 sequence (whole entry): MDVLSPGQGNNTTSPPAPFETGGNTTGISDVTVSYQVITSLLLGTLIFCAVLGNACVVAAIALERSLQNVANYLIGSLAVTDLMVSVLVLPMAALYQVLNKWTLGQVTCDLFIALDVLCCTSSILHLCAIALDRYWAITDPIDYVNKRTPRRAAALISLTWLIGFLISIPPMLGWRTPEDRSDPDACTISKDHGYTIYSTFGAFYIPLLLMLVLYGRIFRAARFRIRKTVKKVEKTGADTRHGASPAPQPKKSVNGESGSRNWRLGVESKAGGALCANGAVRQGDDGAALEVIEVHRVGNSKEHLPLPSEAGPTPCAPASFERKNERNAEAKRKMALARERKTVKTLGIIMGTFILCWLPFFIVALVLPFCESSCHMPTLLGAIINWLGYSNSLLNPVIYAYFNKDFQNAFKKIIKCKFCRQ

[10] = target: Serine/threonine-protein kinase 38-like (Homo sapiens) (UniProt Q9Y2H1)
[11] = target: Cyclin-dependent kinase 3 (Homo sapiens) (UniProt Q00526)
Chain of Cyclin-dependent kinase 3 (Homo sapiens) (Q00526 whole entry, looked up): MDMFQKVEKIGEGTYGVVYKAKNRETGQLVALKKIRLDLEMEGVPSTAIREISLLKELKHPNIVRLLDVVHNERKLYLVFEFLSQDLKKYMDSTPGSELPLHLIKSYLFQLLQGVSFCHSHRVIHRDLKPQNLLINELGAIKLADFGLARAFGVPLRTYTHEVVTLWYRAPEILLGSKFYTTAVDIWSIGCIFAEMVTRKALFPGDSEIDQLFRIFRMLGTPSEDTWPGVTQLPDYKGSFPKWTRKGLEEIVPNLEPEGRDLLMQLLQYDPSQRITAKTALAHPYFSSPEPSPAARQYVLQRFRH

[12] = target: Serine/threonine-protein kinase BRSK2 (Homo sapiens) (UniProt Q8IWQ3)
[13] = target: Calcium/calmodulin-dependent protein kinase type 1 (Homo sapiens) (UniProt Q14012)
Chain of Calcium/calmodulin-dependent protein kinase type 1 (Homo sapiens) (Q14012 whole entry, looked up): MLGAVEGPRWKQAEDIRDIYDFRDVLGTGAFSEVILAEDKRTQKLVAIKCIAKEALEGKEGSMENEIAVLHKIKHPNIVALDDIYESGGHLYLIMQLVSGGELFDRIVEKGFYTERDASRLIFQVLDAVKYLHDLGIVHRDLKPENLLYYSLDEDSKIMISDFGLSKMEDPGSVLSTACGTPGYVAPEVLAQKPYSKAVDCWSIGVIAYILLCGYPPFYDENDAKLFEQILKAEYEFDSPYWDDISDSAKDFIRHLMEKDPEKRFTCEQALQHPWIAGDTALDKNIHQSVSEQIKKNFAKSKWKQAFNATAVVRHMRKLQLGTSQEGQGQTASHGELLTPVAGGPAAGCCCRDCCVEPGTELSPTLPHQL

[14] = target: Tyrosine-protein kinase ABL1 (Homo sapiens) (UniProt P00519)
[15] = target: STE20-like serine/threonine-protein kinase (Homo sapiens) (UniProt Q9H2G2)
[16] = target: Testis-specific serine/threonine-protein kinase 3 (Homo sapiens) (UniProt Q96PN8)
Chain of Testis-specific serine/threonine-protein kinase 3 (Homo sapiens) (Q96PN8 whole entry): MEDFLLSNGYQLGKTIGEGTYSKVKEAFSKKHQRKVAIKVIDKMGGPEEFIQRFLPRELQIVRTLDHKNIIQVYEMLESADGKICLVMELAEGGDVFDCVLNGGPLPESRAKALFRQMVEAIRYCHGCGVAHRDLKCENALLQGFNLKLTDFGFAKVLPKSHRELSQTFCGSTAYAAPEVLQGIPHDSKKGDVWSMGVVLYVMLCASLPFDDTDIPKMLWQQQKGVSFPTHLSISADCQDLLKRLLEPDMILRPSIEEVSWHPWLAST

[17] = target: T3, Tyrosine-protein kinase ITK/TSK (Homo sapiens) (UniProt Q08881)
T3 sequence (whole entry): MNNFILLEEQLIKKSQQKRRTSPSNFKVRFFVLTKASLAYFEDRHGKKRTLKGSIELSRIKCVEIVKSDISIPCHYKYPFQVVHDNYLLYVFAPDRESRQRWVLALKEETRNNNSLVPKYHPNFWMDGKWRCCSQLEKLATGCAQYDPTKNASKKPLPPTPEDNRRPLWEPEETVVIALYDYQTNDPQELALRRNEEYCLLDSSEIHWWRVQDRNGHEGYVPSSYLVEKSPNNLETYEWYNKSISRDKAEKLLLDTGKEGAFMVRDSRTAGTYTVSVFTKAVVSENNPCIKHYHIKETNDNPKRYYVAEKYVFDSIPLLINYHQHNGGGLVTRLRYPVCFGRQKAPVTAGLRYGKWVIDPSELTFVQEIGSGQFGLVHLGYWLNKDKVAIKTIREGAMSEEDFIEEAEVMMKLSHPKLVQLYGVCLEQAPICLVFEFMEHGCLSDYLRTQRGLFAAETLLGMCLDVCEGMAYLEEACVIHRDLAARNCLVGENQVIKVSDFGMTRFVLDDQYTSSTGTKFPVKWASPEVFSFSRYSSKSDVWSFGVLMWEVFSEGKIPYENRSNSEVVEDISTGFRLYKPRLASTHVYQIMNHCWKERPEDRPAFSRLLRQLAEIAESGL

[18] = target: Cyclin-dependent kinase 19 (Homo sapiens) (UniProt Q9BWU1)
Chain of Cyclin-dependent kinase 19 (Homo sapiens) (Q9BWU1 whole entry): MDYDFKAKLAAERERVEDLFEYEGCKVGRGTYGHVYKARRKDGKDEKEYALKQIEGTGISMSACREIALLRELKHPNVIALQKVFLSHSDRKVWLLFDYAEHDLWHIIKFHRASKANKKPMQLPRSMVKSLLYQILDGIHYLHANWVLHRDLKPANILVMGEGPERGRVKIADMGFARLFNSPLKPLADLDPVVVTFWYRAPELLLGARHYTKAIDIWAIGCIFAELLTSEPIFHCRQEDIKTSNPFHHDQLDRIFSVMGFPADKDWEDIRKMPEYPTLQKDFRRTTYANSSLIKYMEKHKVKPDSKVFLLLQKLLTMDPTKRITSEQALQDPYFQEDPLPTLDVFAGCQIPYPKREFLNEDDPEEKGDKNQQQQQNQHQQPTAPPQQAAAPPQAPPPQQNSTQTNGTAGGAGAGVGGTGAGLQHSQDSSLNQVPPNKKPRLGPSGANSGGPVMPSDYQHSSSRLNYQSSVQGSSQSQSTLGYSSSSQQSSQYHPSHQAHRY

[19] = target: Rhodopsin kinase GRK1 (Homo sapiens) (UniProt Q15835)
Chain of Rhodopsin kinase GRK1 (Homo sapiens) (Q15835 whole entry): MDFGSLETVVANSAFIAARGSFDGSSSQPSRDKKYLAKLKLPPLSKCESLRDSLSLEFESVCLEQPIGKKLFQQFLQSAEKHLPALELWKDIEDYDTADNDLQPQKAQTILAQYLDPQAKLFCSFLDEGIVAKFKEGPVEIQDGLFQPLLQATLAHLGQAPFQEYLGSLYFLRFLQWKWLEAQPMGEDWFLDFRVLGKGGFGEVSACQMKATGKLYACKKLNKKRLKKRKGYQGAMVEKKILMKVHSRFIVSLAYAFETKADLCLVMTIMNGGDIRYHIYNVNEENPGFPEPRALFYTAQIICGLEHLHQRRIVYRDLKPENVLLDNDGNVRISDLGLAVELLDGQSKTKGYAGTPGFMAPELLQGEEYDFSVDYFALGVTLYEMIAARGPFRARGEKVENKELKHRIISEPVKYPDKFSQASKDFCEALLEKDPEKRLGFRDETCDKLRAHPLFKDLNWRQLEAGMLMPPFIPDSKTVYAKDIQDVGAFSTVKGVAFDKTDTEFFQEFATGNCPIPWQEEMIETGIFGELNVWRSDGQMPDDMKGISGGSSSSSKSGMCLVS

[20] = Compound concentration 100.0 nM
[21] = Compound concentration 1000.0 nM

Chain of Dual specificity protein kinase CLK2 (Homo sapiens) (P49760 whole entry, looked up, canonical isoform): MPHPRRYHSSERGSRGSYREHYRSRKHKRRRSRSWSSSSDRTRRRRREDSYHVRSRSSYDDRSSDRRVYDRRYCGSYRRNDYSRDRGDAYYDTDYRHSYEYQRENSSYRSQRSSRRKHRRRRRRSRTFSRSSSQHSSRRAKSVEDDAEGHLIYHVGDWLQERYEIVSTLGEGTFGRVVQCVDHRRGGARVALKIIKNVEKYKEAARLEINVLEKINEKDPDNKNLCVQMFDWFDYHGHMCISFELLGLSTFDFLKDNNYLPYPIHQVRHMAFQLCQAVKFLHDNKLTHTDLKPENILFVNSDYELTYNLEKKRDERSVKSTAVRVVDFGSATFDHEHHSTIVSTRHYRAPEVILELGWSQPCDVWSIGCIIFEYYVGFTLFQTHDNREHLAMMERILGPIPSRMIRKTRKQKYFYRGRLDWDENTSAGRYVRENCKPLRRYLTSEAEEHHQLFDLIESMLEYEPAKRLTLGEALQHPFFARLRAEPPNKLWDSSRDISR
Chain of MAP kinase-activated protein kinase 2 (Homo sapiens) (P49137 whole entry, looked up): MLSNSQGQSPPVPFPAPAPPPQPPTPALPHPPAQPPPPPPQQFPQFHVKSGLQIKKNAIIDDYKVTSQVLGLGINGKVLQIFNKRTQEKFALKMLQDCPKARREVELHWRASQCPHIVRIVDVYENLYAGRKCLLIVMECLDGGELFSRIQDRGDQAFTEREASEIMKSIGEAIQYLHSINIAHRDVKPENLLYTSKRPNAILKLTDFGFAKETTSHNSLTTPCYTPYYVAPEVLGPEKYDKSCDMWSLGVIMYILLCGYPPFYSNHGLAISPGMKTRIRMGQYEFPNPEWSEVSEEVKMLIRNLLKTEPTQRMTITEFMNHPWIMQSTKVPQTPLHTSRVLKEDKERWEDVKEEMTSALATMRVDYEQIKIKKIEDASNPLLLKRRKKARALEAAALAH
Chain of Serine/threonine-protein kinase 36 (Homo sapiens) (Q9NRP7 whole entry): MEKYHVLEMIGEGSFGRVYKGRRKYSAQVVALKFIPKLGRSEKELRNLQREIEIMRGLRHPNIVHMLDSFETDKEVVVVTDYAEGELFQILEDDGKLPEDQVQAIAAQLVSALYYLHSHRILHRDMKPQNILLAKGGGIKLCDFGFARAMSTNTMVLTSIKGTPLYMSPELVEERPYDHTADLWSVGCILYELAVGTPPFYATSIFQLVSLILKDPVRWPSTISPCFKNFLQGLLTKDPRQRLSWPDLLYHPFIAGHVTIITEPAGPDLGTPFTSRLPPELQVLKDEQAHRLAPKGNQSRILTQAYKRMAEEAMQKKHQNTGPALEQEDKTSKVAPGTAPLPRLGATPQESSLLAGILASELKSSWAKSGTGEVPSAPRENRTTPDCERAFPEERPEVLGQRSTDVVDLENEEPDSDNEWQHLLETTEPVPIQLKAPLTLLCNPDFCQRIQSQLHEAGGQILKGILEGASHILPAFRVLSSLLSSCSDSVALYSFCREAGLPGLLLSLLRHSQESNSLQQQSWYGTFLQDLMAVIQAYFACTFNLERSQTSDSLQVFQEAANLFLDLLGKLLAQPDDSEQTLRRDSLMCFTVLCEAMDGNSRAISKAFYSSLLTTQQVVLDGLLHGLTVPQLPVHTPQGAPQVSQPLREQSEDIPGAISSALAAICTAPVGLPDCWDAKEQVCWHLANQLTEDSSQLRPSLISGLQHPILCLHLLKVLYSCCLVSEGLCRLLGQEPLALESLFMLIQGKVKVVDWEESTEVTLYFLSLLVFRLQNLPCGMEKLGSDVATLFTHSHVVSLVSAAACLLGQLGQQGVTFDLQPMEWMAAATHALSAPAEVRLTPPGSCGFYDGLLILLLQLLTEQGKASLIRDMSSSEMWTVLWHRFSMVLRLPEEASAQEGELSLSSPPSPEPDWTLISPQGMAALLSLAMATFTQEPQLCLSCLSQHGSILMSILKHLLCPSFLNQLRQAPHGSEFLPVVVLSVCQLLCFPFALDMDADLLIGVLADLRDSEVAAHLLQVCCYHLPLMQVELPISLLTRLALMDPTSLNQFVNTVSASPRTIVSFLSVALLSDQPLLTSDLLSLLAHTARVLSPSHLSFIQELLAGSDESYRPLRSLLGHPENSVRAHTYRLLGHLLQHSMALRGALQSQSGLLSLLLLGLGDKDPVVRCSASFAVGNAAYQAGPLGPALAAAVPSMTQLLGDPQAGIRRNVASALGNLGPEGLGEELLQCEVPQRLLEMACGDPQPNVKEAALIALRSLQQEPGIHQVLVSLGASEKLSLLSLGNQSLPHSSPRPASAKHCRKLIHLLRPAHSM

Compound: C[C@@H]1CN(c2cc(-c3n[nH]c4ccc(OC5(C)CC5)cc34)ncn2)C[C@H](C)O1 [MLi-2]
- residual activity [1, 20]: 92%
- residual activity [2, 20]: 86%
- residual activity [3, 20]: 96%
- residual activity [4, 20]: 85%
- residual activity [5, 20]: 81%
- inhibition [6]: 4.35%
- residual activity [7, 20]: 73%
- residual activity [8, 20]: 64%
- inhibition [9]: 4.44%
- residual activity [10, 20]: 85%
- residual activity [11, 20]: 76%
- residual activity [12, 20]: 100%
- residual activity [13, 20]: 100%
- residual activity [14, 20]: 87%
- residual activity [15, 20]: 98%
- residual activity [16, 20]: 79%
- residual activity [17, 20]: 87%
- residual activity [18, 20]: 70%
- residual activity [19, 20]: 83%

Compound: C[C@@H]1CN(c2cc(-c3nn(C)c4ccc(OC5(C)CC5)cc34)ncn2)C[C@H](C)O1 [MLi-2-NC]
- residual activity [1, 21]: 76%
- residual activity [2, 21]: 93%
- residual activity [3, 21]: 93%
- residual activity [4, 21]: 81%
- residual activity [5, 21]: 32%
- inhibition [6]: -3.11%
- residual activity [7, 21]: 100%
- residual activity [8, 21]: 58%
- inhibition [9]: 18.1%
- residual activity [10, 21]: 72%
- residual activity [11, 21]: 98%
- residual activity [12, 21]: 100%
- residual activity [13, 21]: 100%
- residual activity [14, 21]: 85%
- residual activity [15, 21]: 100%
- residual activity [16, 21]: 75%
- residual activity [17, 21]: 96%
- residual activity [18, 21]: 92%
- residual activity [19, 21]: 100%
